Experimental data: article PMC11864979, “First-in-class ultralong-target-residence-time p38α inhibitors as a mitosis-targeted therapy for colorectal cancer” (Nature Cancer, 2025)
Like-named read-outs stand apart in the source and are kept apart here.

How the values were obtained:
Experiment in all cases: selectivity profiling in a panel of 340 wild-type kinases (Reaction Biology Europe)
Type in all cases: binding
340 wild-type kinases [1] = target: T1, 340 wild-type kinases (Homo sapiens, UniProt Q15349)
T1 construct: purchased Reaction Biology Europe
T1 sequence (Q15349 whole entry): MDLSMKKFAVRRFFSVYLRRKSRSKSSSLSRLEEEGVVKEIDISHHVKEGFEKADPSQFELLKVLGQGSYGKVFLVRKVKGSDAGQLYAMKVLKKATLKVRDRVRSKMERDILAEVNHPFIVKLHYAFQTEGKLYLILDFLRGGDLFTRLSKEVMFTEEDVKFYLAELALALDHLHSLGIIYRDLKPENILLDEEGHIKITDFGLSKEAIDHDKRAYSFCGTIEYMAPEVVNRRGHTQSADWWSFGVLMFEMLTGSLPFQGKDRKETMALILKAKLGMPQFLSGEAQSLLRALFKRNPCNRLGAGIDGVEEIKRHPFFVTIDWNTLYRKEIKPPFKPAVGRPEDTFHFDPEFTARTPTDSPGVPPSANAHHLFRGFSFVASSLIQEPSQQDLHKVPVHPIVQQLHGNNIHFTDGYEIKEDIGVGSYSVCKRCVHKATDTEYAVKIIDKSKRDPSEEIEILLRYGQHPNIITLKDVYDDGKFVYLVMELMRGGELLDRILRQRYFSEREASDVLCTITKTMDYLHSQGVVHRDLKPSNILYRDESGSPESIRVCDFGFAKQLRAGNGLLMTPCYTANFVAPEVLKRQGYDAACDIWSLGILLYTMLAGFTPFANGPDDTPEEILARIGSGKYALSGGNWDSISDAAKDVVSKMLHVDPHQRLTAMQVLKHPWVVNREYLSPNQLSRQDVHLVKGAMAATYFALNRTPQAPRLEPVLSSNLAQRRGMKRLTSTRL

340 wild-type kinases [2] = target: T2, 340 wild-type kinases (Homo sapiens, UniProt Q9H4B4)
T2 construct: purchased Reaction Biology Europe

340 wild-type kinases [3] = target: T3, 340 wild-type kinases (Homo sapiens, UniProt P22607)
T3 construct: purchased Reaction Biology Europe
T3 sequence (P22607 23-806): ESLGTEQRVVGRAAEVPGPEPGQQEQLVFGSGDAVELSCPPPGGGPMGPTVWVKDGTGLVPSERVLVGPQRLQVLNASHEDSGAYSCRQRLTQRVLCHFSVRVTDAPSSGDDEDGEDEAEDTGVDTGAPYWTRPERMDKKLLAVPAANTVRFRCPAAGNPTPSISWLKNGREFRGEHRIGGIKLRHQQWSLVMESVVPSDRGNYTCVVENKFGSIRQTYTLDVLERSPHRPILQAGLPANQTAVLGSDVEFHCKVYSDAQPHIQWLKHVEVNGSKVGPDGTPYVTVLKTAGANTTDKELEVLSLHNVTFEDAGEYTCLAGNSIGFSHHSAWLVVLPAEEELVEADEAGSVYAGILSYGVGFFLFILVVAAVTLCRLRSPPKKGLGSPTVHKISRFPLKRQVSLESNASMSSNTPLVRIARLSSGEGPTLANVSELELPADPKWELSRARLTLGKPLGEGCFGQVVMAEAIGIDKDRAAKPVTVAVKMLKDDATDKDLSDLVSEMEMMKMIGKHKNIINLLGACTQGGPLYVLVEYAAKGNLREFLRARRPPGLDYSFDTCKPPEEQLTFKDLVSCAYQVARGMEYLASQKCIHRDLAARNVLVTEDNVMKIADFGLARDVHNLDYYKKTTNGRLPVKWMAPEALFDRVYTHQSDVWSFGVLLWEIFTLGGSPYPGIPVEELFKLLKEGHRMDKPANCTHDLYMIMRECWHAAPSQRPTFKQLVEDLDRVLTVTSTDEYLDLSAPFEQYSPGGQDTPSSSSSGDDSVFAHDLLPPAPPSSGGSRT

340 wild-type kinases [4] = target: T4, 340 wild-type kinases (Homo sapiens, UniProt P53671)
T4 construct: purchased Reaction Biology Europe
T4 sequence (P53671 whole entry): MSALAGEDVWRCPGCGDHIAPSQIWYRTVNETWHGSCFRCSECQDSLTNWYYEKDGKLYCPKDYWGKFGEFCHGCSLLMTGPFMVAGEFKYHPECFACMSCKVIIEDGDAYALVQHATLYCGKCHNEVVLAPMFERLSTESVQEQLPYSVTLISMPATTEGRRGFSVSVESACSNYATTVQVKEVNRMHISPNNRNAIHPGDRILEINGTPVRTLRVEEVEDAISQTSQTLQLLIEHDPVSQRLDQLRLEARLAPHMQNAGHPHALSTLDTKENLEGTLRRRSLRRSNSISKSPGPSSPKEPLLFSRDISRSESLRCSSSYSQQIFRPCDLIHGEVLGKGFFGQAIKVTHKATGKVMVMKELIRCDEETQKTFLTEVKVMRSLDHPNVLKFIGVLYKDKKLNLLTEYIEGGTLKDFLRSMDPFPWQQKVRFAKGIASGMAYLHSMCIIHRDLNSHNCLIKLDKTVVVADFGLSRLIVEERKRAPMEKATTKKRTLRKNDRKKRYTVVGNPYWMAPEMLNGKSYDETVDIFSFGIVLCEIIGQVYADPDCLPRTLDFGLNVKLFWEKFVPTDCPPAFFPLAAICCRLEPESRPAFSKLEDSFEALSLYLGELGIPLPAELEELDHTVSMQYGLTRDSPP

340 wild-type kinases [5] = target: T5, 340 wild-type kinases (Homo sapiens, UniProt Q9BWU1)
T5 construct: purchased Reaction Biology Europe
T5 sequence (Q9BWU1 whole entry): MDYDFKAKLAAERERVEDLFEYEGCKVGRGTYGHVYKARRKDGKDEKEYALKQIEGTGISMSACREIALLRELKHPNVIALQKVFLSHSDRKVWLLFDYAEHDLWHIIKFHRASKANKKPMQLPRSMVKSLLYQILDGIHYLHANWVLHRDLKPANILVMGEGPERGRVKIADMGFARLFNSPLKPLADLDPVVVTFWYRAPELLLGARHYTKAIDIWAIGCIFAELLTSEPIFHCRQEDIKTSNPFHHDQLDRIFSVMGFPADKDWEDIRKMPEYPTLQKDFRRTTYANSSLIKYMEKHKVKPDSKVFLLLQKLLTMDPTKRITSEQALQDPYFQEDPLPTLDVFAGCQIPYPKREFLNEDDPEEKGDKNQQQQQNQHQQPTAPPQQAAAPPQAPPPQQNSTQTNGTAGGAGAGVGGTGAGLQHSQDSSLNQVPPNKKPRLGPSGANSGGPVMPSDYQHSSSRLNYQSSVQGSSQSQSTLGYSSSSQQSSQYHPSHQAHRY

340 wild-type kinases [6] = target: T6, 340 wild-type kinases (Homo sapiens, UniProt Q9UL54)
T6 construct: purchased Reaction Biology Europe
T6 sequence (Q9UL54 1-1235): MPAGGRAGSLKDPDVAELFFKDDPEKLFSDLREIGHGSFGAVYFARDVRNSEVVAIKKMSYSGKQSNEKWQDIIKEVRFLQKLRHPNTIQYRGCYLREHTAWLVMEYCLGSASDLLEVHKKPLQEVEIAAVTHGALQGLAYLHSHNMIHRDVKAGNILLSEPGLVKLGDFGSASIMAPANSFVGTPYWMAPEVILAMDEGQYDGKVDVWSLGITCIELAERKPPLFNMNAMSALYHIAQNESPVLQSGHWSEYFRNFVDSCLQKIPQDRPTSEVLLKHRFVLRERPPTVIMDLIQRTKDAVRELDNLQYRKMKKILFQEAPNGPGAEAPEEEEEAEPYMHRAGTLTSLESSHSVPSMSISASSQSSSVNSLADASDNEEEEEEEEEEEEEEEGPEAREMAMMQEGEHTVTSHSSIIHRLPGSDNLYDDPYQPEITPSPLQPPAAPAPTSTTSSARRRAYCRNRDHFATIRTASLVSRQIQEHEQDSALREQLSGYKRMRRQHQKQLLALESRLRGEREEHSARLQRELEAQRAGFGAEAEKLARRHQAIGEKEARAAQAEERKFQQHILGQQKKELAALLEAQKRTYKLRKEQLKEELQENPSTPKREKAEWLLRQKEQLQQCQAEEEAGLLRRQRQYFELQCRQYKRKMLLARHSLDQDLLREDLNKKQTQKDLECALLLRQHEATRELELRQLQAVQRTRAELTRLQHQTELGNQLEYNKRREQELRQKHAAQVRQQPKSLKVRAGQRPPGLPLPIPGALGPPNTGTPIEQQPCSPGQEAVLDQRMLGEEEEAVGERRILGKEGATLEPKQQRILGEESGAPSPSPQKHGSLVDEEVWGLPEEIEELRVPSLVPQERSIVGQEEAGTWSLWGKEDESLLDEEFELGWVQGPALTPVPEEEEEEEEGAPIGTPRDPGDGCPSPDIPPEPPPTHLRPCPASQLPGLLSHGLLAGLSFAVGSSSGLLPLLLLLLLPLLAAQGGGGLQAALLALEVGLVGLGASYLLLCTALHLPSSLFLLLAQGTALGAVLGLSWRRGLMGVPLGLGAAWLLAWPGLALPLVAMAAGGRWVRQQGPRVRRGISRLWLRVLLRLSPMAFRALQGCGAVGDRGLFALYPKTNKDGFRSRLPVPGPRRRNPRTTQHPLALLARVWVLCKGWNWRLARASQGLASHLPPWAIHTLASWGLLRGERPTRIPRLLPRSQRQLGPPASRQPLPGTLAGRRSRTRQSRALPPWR

340 wild-type kinases [7] = target: T7, 340 wild-type kinases (Homo sapiens, UniProt P08069)
T7 construct: purchased Reaction Biology Europe
T7 sequence (P08069 31-1367): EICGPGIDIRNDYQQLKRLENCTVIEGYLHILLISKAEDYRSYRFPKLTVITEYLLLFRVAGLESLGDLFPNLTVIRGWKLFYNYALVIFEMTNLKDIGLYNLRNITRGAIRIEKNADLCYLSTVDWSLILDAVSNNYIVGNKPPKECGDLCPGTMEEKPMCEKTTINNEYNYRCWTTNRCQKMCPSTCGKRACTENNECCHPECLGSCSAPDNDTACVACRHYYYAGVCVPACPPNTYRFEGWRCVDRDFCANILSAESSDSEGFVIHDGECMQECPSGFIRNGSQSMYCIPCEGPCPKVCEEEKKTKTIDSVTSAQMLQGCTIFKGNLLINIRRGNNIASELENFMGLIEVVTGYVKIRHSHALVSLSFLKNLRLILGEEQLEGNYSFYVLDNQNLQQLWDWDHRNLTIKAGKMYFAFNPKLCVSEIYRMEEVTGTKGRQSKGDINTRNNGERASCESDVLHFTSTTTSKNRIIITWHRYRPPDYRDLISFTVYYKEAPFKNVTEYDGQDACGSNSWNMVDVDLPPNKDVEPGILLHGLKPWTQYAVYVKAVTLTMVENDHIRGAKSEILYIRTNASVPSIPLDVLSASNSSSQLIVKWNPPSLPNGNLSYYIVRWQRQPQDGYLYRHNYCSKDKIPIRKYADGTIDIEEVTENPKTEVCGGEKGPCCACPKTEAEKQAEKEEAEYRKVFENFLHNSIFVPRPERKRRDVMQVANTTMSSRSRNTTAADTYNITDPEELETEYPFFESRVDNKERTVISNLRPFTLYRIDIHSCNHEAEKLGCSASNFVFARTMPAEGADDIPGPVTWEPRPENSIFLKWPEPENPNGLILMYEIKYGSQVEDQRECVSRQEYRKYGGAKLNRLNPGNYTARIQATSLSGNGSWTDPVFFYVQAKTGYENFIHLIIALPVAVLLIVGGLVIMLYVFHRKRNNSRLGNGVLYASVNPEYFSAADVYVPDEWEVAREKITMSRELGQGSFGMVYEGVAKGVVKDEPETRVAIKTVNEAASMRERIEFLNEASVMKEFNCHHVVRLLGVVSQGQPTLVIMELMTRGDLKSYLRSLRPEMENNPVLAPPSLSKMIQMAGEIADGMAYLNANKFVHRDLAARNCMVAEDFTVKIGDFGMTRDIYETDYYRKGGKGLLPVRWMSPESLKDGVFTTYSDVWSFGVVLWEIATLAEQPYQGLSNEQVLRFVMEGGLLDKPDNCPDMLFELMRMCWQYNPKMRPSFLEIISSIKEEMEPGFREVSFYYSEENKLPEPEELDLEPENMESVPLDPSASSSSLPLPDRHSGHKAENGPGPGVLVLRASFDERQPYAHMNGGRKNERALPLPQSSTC

340 wild-type kinases [8] = target: T8, 340 wild-type kinases (Homo sapiens, UniProt P11362)
T8 construct: purchased Reaction Biology Europe

340 wild-type kinases [9] = target: T9, 340 wild-type kinases (Homo sapiens, UniProt Q13555)
T9 construct: purchased Reaction Biology Europe
T9 sequence (Q13555 whole entry): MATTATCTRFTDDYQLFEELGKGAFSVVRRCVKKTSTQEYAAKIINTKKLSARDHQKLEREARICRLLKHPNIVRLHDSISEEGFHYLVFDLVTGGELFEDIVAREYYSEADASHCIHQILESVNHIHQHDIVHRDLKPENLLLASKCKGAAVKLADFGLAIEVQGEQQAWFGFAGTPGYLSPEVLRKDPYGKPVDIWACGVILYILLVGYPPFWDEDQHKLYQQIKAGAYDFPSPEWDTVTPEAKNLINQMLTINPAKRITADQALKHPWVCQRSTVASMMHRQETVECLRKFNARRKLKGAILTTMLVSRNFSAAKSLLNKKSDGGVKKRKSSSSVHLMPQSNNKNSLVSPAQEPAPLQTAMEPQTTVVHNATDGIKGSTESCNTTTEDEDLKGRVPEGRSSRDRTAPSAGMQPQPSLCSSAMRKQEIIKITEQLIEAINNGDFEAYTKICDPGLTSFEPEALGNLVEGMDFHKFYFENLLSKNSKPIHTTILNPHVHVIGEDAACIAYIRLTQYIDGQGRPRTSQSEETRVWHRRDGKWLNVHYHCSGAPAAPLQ

340 wild-type kinases [10] = target: T10, 340 wild-type kinases (Homo sapiens, UniProt Q9NWZ3)
T10 construct: purchased Reaction Biology Europe
T10 sequence (Q9NWZ3 1-460): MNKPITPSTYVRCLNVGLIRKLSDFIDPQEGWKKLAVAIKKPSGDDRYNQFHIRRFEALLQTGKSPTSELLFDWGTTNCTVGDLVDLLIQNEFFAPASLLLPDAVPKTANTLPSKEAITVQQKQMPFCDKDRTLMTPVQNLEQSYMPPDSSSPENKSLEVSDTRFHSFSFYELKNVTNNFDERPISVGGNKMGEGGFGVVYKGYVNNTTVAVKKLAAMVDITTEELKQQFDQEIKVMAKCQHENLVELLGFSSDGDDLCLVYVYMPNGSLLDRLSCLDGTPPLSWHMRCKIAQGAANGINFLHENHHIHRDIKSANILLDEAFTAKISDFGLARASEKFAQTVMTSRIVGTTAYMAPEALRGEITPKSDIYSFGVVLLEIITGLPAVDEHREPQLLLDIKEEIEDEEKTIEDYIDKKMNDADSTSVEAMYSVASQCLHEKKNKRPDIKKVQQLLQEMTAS

Structure (SMILES): CNC(=O)c1ccc2c(c1)C(=O)c1ccc(Nc3ccc(F)c(NC(=O)C4CC4)c3)cc1CC2 [Compound 2015]
- remaining activity at 0.2 µM (340 wild-type kinases [1]; 0.2 µM 2015, read-out: RPS6KA2 residual activity): 84.7%
- remaining activity at 1 µM (340 wild-type kinases [1]; 1 µM 2015, read-out: RPS6KA2 residual activity): 91%
- remaining activity at 0.2 µM (340 wild-type kinases [1]; RPS6KA2, 0.2 µM, read-out: residual activity): 84.7%
- remaining activity at 1 µM (340 wild-type kinases [1]; RPS6KA2, 1 µM, read-out: residual activity): 91%
- remaining activity at 0.2 µM (340 wild-type kinases [2]; 0.2 µM 2015, read-out: PLK3 residual activity): 101%
- remaining activity at 1 µM (340 wild-type kinases [2]; 1 µM 2015, read-out: PLK3 residual activity): 134%
- remaining activity at 0.2 µM (340 wild-type kinases [2]; PLK3, 0.2 µM, read-out: residual activity): 101%
- remaining activity at 1 µM (340 wild-type kinases [2]; PLK3, 1 µM, read-out: residual activity): 134%
- remaining activity at 0.2 µM (340 wild-type kinases [3]; 0.2 µM 2015, read-out: FGFR3 residual activity): 109%
- remaining activity at 1 µM (340 wild-type kinases [3]; 1 µM 2015, read-out: FGFR3 residual activity): 97.1%
- remaining activity at 0.2 µM (340 wild-type kinases [3]; FGFR3, 0.2 µM, read-out: residual activity): 109%
- remaining activity at 1 µM (340 wild-type kinases [3]; FGFR3, 1 µM, read-out: residual activity): 97.1%
- remaining activity at 0.2 µM (340 wild-type kinases [4]; 0.2 µM 2015, read-out: LIMK2 residual activity): 114%
- remaining activity at 1 µM (340 wild-type kinases [4]; 1 µM 2015, read-out: LIMK2 residual activity): 103%
- remaining activity at 0.2 µM (340 wild-type kinases [4]; LIMK2, 0.2 µM, read-out: residual activity): 114%
- remaining activity at 1 µM (340 wild-type kinases [4]; LIMK2, 1 µM, read-out: residual activity): 103%
- remaining activity at 0.2 µM (340 wild-type kinases [5]; 0.2 µM 2015, read-out: CDK19/CycC residual activity): 99.8%
- remaining activity at 1 µM (340 wild-type kinases [5]; 1 µM 2015, read-out: CDK19/CycC residual activity): 96.4%
- remaining activity at 0.2 µM (340 wild-type kinases [5]; CDK19/CycC, 0.2 µM, read-out: residual activity): 99.8%
- remaining activity at 1 µM (340 wild-type kinases [5]; CDK19/CycC, 1 µM, read-out: residual activity): 96.4%
- remaining activity at 0.2 µM (340 wild-type kinases [6]; 0.2 µM 2015, read-out: TAOK2 residual activity): 102%
- remaining activity at 1 µM (340 wild-type kinases [6]; 1 µM 2015, read-out: TAOK2 residual activity): 103%
- remaining activity at 0.2 µM (340 wild-type kinases [6]; TAOK2, 0.2 µM, read-out: residual activity): 102%
- remaining activity at 1 µM (340 wild-type kinases [6]; TAOK2, 1 µM, read-out: residual activity): 103%
- remaining activity at 0.2 µM (340 wild-type kinases [7]; 0.2 µM 2015, read-out: IGF1R residual activity): 109%
- remaining activity at 1 µM (340 wild-type kinases [7]; 1 µM 2015, read-out: IGF1R residual activity): 97.4%
- remaining activity at 0.2 µM (340 wild-type kinases [7]; IGF1R, 0.2 µM, read-out: residual activity): 109%
- remaining activity at 1 µM (340 wild-type kinases [7]; IGF1R, 1 µM, read-out: residual activity): 97.4%
- remaining activity at 0.2 µM (340 wild-type kinases [8]; 0.2 µM 2015, read-out: FGFR1 residual activity): 105%
- remaining activity at 1 µM (340 wild-type kinases [8]; 1 µM 2015, read-out: FGFR1 residual activity): 111%
- remaining activity at 0.2 µM (340 wild-type kinases [8]; FGFR1, 0.2 µM, read-out: residual activity): 105%
- remaining activity at 1 µM (340 wild-type kinases [8]; FGFR1, 1 µM, read-out: residual activity): 111%
- remaining activity at 0.2 µM (340 wild-type kinases [9]; 0.2 µM 2015, read-out: CAMK2G residual activity): 99%
- remaining activity at 1 µM (340 wild-type kinases [9]; 1 µM 2015, read-out: CAMK2G residual activity): 90.5%
- remaining activity at 0.2 µM (340 wild-type kinases [9]; CAMK2G, 0.2 µM, read-out: residual activity): 99%
- remaining activity at 1 µM (340 wild-type kinases [9]; CAMK2G, 1 µM, read-out: residual activity): 90.5%
- remaining activity at 0.2 µM (340 wild-type kinases [10]; 0.2 µM 2015, read-out: IRAK4 residual activity): 96.5%
- remaining activity at 1 µM (340 wild-type kinases [10]; 1 µM 2015, read-out: IRAK4 residual activity): 93.5%
- remaining activity at 0.2 µM (340 wild-type kinases [10]; IRAK4, 0.2 µM, read-out: residual activity): 96.5%
- remaining activity at 1 µM (340 wild-type kinases [10]; IRAK4, 1 µM, read-out: residual activity): 93.5%
